Assays:
[1] = tested on: Ras farnesylation in the v-ras cell line (Ha-ras p21); assay: In vivo ras farnesylation assay (v-ras cell line); type: cell-based
Method: In vivo ras farnesylation assay
The cell line used in this assay was the v-ras line, which expressed vital Ha-ras p21. The assay was performed essentially as described in DeClue, J. E. et. al., Cancer Reasearch 51, 712-717, (1991). Cells in 10 cm dishes at 50-75% confluency were treated with the test compound (final concentration of solvent, methanol or dimethyl sulfoxide, was 0.1%). After 4 hours at 37° C., the cells were labelled in 3 ml methionine-free DMEM supplemeted with 10% regular DMEM, 2% fetal bovine serum and 400 μCi[^35 S] methionine (1000 Ci/mmol). After an additional 20 hours, the cells were lysed in 1 ml lysis buffer (1% NP40/20 nnM HEPES, pH 7.5/5 mM MgCl2 /1 mM DTT/10 μg/ml aprotinen/2 μg/ml leupeptin/2 μg/ml antipain/0.5 mM PMSF) and the lysates cleared by centrifugation at 100,000×g for 45 min. Aliqouts of lysates containing equal numbers of acid-precipitable counts were brought to 1 ml with IP buffer (lysis buffer lacking DTT) and immunoprecipitated with the ras-specific monoclonal antibody Y13-259 (Furth, M. E. et al., J. Virol. 43, 294-304, (1982)). Following a 2 hour antibody incubation at 4° C., 200 μl of a 25% suspension of protein A-Sepharose coated with rabbit anti rat IgG was added for 45 min. […]

[2] = biological target: T1, Farnesyl-protein transferase (FTase) from bovine brain (Bos taurus, UniProt P29702+P49355); assay: In vitro inhibition of Ras Farnesyl Transferase; type: biochemical; settings: Ras-CVLS 3.5 μM, [3H]FPP 0.25 μM, partially purified bovine brain FTase; read-out: IC50 (concentration of compound which gives 50% inhibition of FTase)
T1 construct: Farnesyl-protein transferase (FTase) from bovine brain; from tissue; host or cells: bovine brain, partially purified (DEAE-Sephacel, N-octyl agarose, Mono Q HPLC)
Method: In vitro inhibition of Ras Farnesyl Transferase […] Ras-CVLS at 3.5 μ[…], and the indicated compounds were incubated with this partially purified enzyme preparation. The FTase data presented below is a measurement of the ability of the test compound to inhibit Ras farnesylation in vitro. | *(IC50 is the concentration of compound which gives 50% inhibition o | FTase under the described assay conditions)

[3] = tested on: Ras farnesylation; settings: literature; cited from earlier work

SMILES	IC50 [2] [nM]	Inhibition of Ras farnesylation in vivo [3]	further results
CC[C@H](C)[C@H](NC[C@@H](NC[C@@H](N)CS)[C@@H](C)CC)C(=O)N[C@H]1CCOC1=O [N-[2(S)-(2(R)-amino-3-mercaptopropylamino)-3(S)-methylpentyl]isoleucyl-homoserine lactone]	950	–	inhibition at 100 µM ([1]; at 100 μM test concentration, 4 hours then additional 20 hours with [35S]methionine): 90%
CC[C@H](C)[C@H](NC[C@@H](N)CS)C(=O)N[C@H](C(=O)N[C@@H](CCCO)C(=O)O)[C@@H](C)CC	24	–	–
CC[C@H](C)[C@H](NC[C@@H](N)CS)C(=O)N[C@H](C(=O)N[C@H]1CCCOC1=O)[C@@H](C)CC [N-[N'-(2(R)-amino-3-mercaptopropyl)isoleucyl-isoleucyl]-3(S)-aminotetrahydropyran-2-one]	470	–	–
CC[C@H](C)C(=O)O[C@H]1C[C@@H](C)C=C2C=C[C@H](C)[C@H](CC[C@@H]3C[C@@H](O)CC(=O)O3)[C@H]21 [lovastatin]	–	Inhibition of Ras farnesylation in vivo has been demonstrated	–
CC[C@H](C)[C@H](NC[C@@H](NC[C@@H](N)CS)[C@@H](C)CC)C(=O)N[C@@H](CCO)C(=O)O [N-[2(S)-(2(R)-amino-3-mercaptopropylamino)-3(S)-methylpentyl]isoleucyl-homoserine]	12	–	Inhibition of Ras farnesylation ([1]; result in words, test concentration not printed for this compound): No Inhibition
CC[C@H](C)C(=O)O[C@H]1CCC=C2C=C[C@H](C)[C@H](CC[C@@H]3C[C@@H](O)CC(=O)O3)[C@H]21 [compactin]	–	Inhibition of Ras farnesylation in vivo has been demonstrated	–

Source: patent US5480893A, “Inhibitors of farnesyl protein transferase” (Merck & Co., Inc., priority 1994, dated 1996)
